Results from patent US20170260178A1 (SPERO GYRASE, INC., priority 2012, published 2017).
Converted amounts (≈) assume the structure as drawn.

Assays:
S. pyogenes (ATCC 51339) = experiment: Bacterial assay: MIC against S. pyogenes; assay type: cell-based, Streptococcus pyogenes; conditions: for MIC: Streptococcus pyogenes, ATCC51339, read-out: minimal inhibitory concentration (MIC)
S. aureus (ATCC 29213) = experiment: Bacterial assay: MIC against S. aureus; assay type: cell-based, Staphylococcus aureus; conditions: for MIC: Staphylococcus aureus, ATCC29213, read-out: minimal inhibitory concentration (MIC)

Compound	MIC (S. pyogenes (ATCC 51339)) [µg/mL]	MIC (S. aureus (ATCC 29213)) [µg/mL]	minimal inhibitory concentration (MIC) (S. pyogenes (ATCC 51339); S. pyogenes ATCC 51339) [µg/mL]	minimal inhibitory concentration (MIC) (S. aureus (ATCC 29213); S. aureus ATCC 29213) [µg/mL]
CCNC(=O)Nc1nc2cc(-c3cnc(C(C)(C)O)nc3)cc(-c3nccc(NCCOC)n3)c2s1 [Compound 78, 1-ethyl-3-[5-[2-(1-hydroxy-1-methyl-ethyl)pyrimidin-5-yl]-7-[4-(2-methoxyethylamino)pyrimidin-2-yl]-1,3-benzothiazol-2-yl]urea]	≤ 1	≤ 1		
1-ethyl-3-[7-[4-(4-ethylpiperazin-1-yl)pyridin-2-yl]-5-[2-(1-hydroxy-1-methyl-ethyl)pyrimidin-5-yl]-1,3-benzothiazol-2-yl]urea [Compound 79]			2	2
CCNC(=O)Nc1nc2cc(-c3cnc(C(C)(C)O)nc3)cc(-c3cc(CN4CCC(F)(F)CC4)ccn3)c2s1 [Compound 156, 1-[7-[4-[(4,4-difluoro-1-piperidyl)methyl]-2-pyridyl]-5-[2-(1-hydroxy-1-methyl-ethyl)pyrimidin-5-yl]-1,3-benzothiazol-2-yl]-3-ethyl-urea]	≤ 1	≤ 1		
CCNC(=O)Nc1nc2cc(-c3ccc(C(O)c4cccnc4)nc3)c(F)cc2s1 (centres unmarked) [Compound 4, 1-ethyl-3-[6-fluoro-5-[6-[hydroxy(3-pyridyl)methyl]-3-pyridyl]-1,3-benzothiazol-2-yl]urea]	≤ 1	≤ 1		
CCNC(=O)Nc1nc2cc(-n3cc(C(C)O)nn3)cc(-c3ccccn3)c2s1 (centres unmarked) [Compound 9, 1-ethyl-3-[5-[4-(1-hydroxyethyl)triazol-1-yl]-7-(2-pyridyl)-1,3-benzothiazol-2-yl]urea]	≤ 1	8 (≈ 19.5 µM)		
CCNC(=O)Nc1nc2cc(-c3cnc(C(C)(C)O)nc3)cc(-c3cncc(CN4CCOCC4)n3)c2s1 [Compound 102, 1-ethyl-3-[5-[2-(1-hydroxy-1-methyl-ethyl)pyrimidin-5-yl]-7-[6-(morpholinomethyl)pyrazin-2-yl]-1,3-benzothiazol-2-yl]urea]	16 (≈ 29.9 µM)	16 (≈ 29.9 µM)		
CCNC(=O)Nc1nc2cc(-c3cnc(C(C)O)nc3)cc(-c3nccc(N4CCC(C)(C(=O)O)CC4)n3)c2s1 (centres unmarked) [Compound 117, 1-[2-[2-(ethylcarbamoylamino)-5-[2-(1-hydroxyethyl)pyrimidin-5-yl]-1,3-benzothiazol-7-yl]pyrimidin-4-yl]-4-methyl-piperidine-4-carboxylic acid]	≤ 1	16 (≈ 28.4 µM)		
CCNC(=O)Nc1nc2cc(-c3cnc(C(C)(C)O)nc3)cc(-c3cc(CN4C[C@@H](C)O[C@@H](C)C4)ccn3)c2s1 [Compound 164, 1-[7-[4-[[(2R,6S)-2,6-dimethylmorpholin-4-yl]methyl]-2-pyridyl]-5-[2-(1-hydroxy-1-methyl-ethyl)pyrimidin-5-yl]-1,3-benzothiazol-2-yl]-3-ethyl-urea]	≤ 1	≤ 1		
CCNC(=O)Nc1nc2cc(-c3ccc(C(C)(C)O)nc3)c(O)c(CN3CCOCC3)c2s1 [Compound 44, 1-ethyl-3-[6-hydroxy-5-[6-(1-hydroxy-1-methyl-ethyl)-3-pyridyl]-7-(morpholinomethyl)-1,3-benzothiazol-2-yl]urea]	16 (≈ 33.9 µM)	16 (≈ 33.9 µM)		
CCNC(=O)Nc1nc2cc(-c3cnc(C(C)O)nc3)cc(-c3cc(N4CCC(C)(C(=O)O)CC4)ncn3)c2s1 (centres unmarked) [Compound 109, 1-[6-[2-(ethylcarbamoylamino)-5-[2-(1-hydroxyethyl)pyrimidin-5-yl]-1,3-benzothiazol-7-yl]pyrimidin-4-yl]-4-methyl-piperidine-4-carboxylic acid]	≤ 1	2 (≈ 3.55 µM)		
CCNC(=O)Nc1nc2cc(-c3cnc(C(C)(C)O)nc3)c(OCCO)cc2s1 [Compound 186, 1-ethyl-3-[6-(2-hydroxyethoxy)-5-[2-(1-hydroxy-1-methyl-ethyl)pyrimidin-5-yl]-1,3-benzothiazol-2-yl]urea]	2 (≈ 4.79 µM)	4 (≈ 9.58 µM)		
CCNC(=O)Nc1nc2cc(-c3cnc(C(C)(C)O)nc3)cc(-c3nccc(N4CC(C)(O)C4)n3)c2s1 [Compound 86, 1-ethyl-3-[7-[4-(3-hydroxy-3-methyl-azetidin-1-yl)pyrimidin-2-yl]-5-[2-(1-hydroxy-1-methyl-ethyl)pyrimidin-5-yl]-1,3-benzothiazol-2-yl]urea]	≤ 1	8 (≈ 15.4 µM)		
CCNC(=O)Nc1nc2cc(-c3cnc(C(C)(C)O)nc3)cc(-c3ccc(CC(=O)O)cn3)c2s1 [Compound 46, 2-[6-[2-(ethylcarbamoylamino)-5-[2-(1-hydroxy-1-methyl-ethyl)pyrimidin-5-yl]-1,3-benzothiazol-7-yl]-3-pyridyl]acetic acid]	4 (≈ 8.12 µM)	4 (≈ 8.12 µM)		
CCNC(=O)Nc1nc2cc(-c3ccc(C(O)C(F)(F)F)nc3)cc(-c3cc(CN4CCOCC4)ccn3)c2s1 (centres unmarked) [Compound 108, 1-ethyl-3-[7-[4-(morpholinomethyl)-2-pyridyl]-5-[6-(2,2,2-trifluoro-1-hydroxy-ethyl)-3-pyridyl]-1,3-benzothiazol-2-yl]urea]	≤ 1	≤ 1		
CCNC(=O)Nc1nc2cc(-c3cnc(C(C)(C)O)nc3)cc(-c3cc(CN4CCC(C)(O)C4)ccn3)c2s1 (centres unmarked) [Compound 67, 1-ethyl-3-[5-[2-(1-hydroxy-1-methyl-ethyl)pyrimidin-5-yl]-7-[4-[(3-hydroxy-3-methyl-pyrrolidin-1-yl)methyl]-2-pyridyl]-1,3-benzothiazol-2-yl]urea]	≤ 1	≤ 1		
CCNC(=O)Nc1nc2cc(-c3cnc(C(C)(C)O)nc3)cc(-c3ncc(CN4CCOCC4)cn3)c2s1 [Compound 120, 1-ethyl-3-[5-[2-(1-hydroxy-1-methyl-ethyl)pyrimidin-5-yl]-7-[5-(morpholinomethyl)pyrimidin-2-yl]-1,3-benzothiazol-2-yl]urea]	≤ 1	≤ 1		
CCNC(=O)Nc1nc2cc(-c3cnc(C(C)O)nc3)cc(-c3ncc(F)c(N4CCOCC4)n3)c2s1 (centres unmarked) [Compound 106, 1-ethyl-3-[7-(5-fluoro-4-morpholino-pyrimidin-2-yl)-5-[2-(1-hydroxyethyl)pyrimidin-5-yl]-1,3-benzothiazol-2-yl]urea]	≤ 1	≤ 1		
CCNC(=O)Nc1nc2cc(-c3cnc(C(C)(C)O)nc3)c(NCCOC)cc2s1 [Compound 150, 1-ethyl-3-[5-[2-(1-hydroxy-1-methyl-ethyl)pyrimidin-5-yl]-6-(2-methoxyethylamino)-1,3-benzothiazol-2-yl]urea]	8 (≈ 18.6 µM)	2 (≈ 4.65 µM)		
CCNC(=O)Nc1nc2cc(-c3cnc(C(C)(C)O)nc3)cc(-c3nccc(N4CCN(CCOC)CC4)n3)c2s1 [Compound 107, 1-ethyl-3-[5-[2-(1-hydroxy-1-methyl-ethyl)pyrimidin-5-yl]-7-[4-[4-(2-methoxyethyl)piperazin-1-yl]pyrimidin-2-yl]-1,3-benzothiazol-2-yl]urea]	≤ 1	≤ 1		
CCNC(=O)Nc1nc2cc(-c3cnc(C(C)(C)O)nc3)c(OCC3CC3)cc2s1 [Compound 182, 1-[6-(cyclopropylmethoxy)-5-[2-(1-hydroxy-1-methyl-ethyl)pyrimidin-5-yl]-1,3-benzothiazol-2-yl]-3-ethyl-urea]	≤ 1	≤ 1		
CCNC(=O)Nc1nc2cc(-c3cnc(C(C)O)nc3)cc(-c3nccc(N4CC(O)C4)n3)c2s1 (centres unmarked) [Compound 105, 1-ethyl-3-[7-[4-(3-hydroxyazetidin-1-yl)pyrimidin-2-yl]-5-[2-(1-hydroxyethyl)pyrimidin-5-yl]-1,3-benzothiazol-2-yl]urea]	≤ 1	16 (≈ 32.5 µM)		
CCNC(=O)Nc1nc2cc(-c3cnc(C(C)(C)O)nc3)cc(-c3cc(N4CCC(C(=O)O)CC4)ccn3)c2s1 [Compound 110, 1-[2-[2-(ethylcarbamoylamino)-5-[2-(1-hydroxy-1-methyl-ethyl)pyrimidin-5-yl]-1,3-benzothiazol-7-yl]-4-pyridyl]piperidine-4-carboxylic acid]	≤ 1	2 (≈ 3.56 µM)		
CCNC(=O)Nc1nc2cc(-c3cnc(C(C)(C)O)nc3)c(OCC3CCCO3)cc2s1 (centres unmarked) [Compound 3, 1-ethyl-3-[5-[2-(1-hydroxy-1-methyl-ethyl)pyrimidin-5-yl]-6-(tetrahydrofuran-2-ylmethoxy)-1,3-benzothiazol-2-yl]urea]	≤ 1	≤ 1		
CCNC(=O)Nc1nc2cc(-c3cnc(C(C)(C)O)nc3)c(OC)cc2s1 [Compound 176, 1-ethyl-3-[5-[2-(1-hydroxy-1-methyl-ethyl)pyrimidin-5-yl]-6-methoxy-1,3-benzothiazol-2-yl]urea]	≤ 1	≤ 1		
CCNC(=O)Nc1nc2cc(-c3cnc(C(C)O)nc3)cc(-c3cc(CN4CC[C@@H](O)C4)ccn3)c2s1 (stereo partly drawn) [Compound 77, 1-ethyl-3-[5-[2-(1-hydroxyethyl)pyrimidin-5-yl]-7-[4-[[(3R)-3-hydroxypyrrolidin-1-yl]methyl]-2-pyridyl]-1,3-benzothiazol-2-yl]urea]	≤ 1	≤ 1		
CCNC(=O)Nc1nc2cc(-c3cnc(C(C)(C)O)nc3)c(OCCN3CCOCC3)cc2s1 [Compound 199, 1-ethyl-3-[5-[2-(1-hydroxy-1-methyl-ethyl)pyrimidin-5-yl]-6-(2-morpholinoethoxy)-1,3-benzothiazol-2-yl]urea]	2 (≈ 4.11 µM)	2 (≈ 4.11 µM)		
CCNC(=O)Nc1nc2cc(-c3cnc(C(C)(C)O)nc3)cc(-c3cc(CN4CC(C)(O)C4)ccn3)c2s1 [Compound 2, 1-ethyl-3-[7-[4-[(3-hydroxy-3-methyl-azetidin-1-yl)methyl]-2-pyridyl]-5-[2-(1-hydroxy-1-methyl-ethyl)pyrimidin-5-yl]-1,3-benzothiazol-2-yl]urea]	≤ 1	≤ 1		
CCNC(=O)Nc1nc2cc(-c3ccc(C(O)c4nccn4C)nc3)cc(-c3ccccn3)c2s1 (centres unmarked) [Compound 24, 1-ethyl-3-[5-[6-[hydroxy-(1-methylimidazol-2-yl)methyl]-3-pyridyl]-7-(2-pyridyl)-1,3-benzothiazol-2-yl]urea]	≤ 1	≤ 1		
